Here are results for 19 molecules from patent US20240166693A1, “METHODS AND COMPOUNDS FOR MODULATING MYOTONIC DYSTROPY 1” (Design Therapeutics, Inc., priority 2020, published 2024).

Read-outs that look alike come from different tables or passages of the source.

In the assay the test system is Myotonic Dystrophy 1 affected patient fibroblasts (Coriell GM04602; 1600 CTG repeats). As to the kind of experiment: DM1 foci reduction assay (CAG10-Cy3 FISH, average foci per nucleus). Format: cell-based. To be noted: Homo sapiens, Fibroblast. Put shortly: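 DM1 patient fibroblasts (GM04602, 1600 CTG) treated 48 h at 37 °C, 8-point 1:3 dilutions from 3 μM top dose; wild-type GM07492 as control. PFA-fixed, ethanol-permeabilized cells hybridized overnight with 5 nM CAG10-Cy3 probe, DAPI-counterstained, imaged at 20× in 4 fields; average foci per nucleus per well.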

[1] abbreviates: 48 h, read-out: Foci Reduction in Fibroblast EC50, 48 h (nM).
The mark [2] stands for this setting: DM1 fibroblasts, 48 h treatment, 8-point dose response, 3 μM top dose, read-out: Foci Reduction in Fibroblast EC50, 48 h.

As to `CCN(CC)CCCC[C@H](NC(=O)[C@H](CC(C)C)NC(=O)[C@H](C)NC(=O)[C@H](Cc1ccccc1)NC(=O)c1ccc(C(C)(C)C)cc1)C(=O)N[C@@H](CO)C(=O)NCCOCCOCCOCCOCCOCCNC(=O)c1nc(NC(=O)CCNC(=O)c2cc(NC(=O)c3nc(NC(=O)[C@H](N)CCNC(=O)c4cc(NC(=O)c5nc(NC(=O)c6cc(NC(=O)c7cccn7C)cn6C)cn5C)cn4C)cn3C)cn2C)cn1C` [Compound 108], the concentration for a half-maximal effect (EC50) under setting [1] lay within 100 to 500 nM.

In the case of `CCN(CC)CCCC[C@H](NC(=O)[C@H](CC(C)C)NC(=O)[C@H](C)NC(=O)[C@H](Cc1ccccc1)NC(=O)c1ccc(C)cc1)C(=O)N[C@@H](CO)C(=O)NCCOCCOCCOCCOCCOCCNC(=O)CCNC(=O)c1nc(NC(=O)c2cc(NC(=O)CCNC(=O)c3nc(NC(=O)CCCNC(=O)c4cc(NC(=O)c5nc(NC(=O)CCNC(=O)c6cc(NC(=O)c7nccn7C)cn6C)cn5C)cn4C)cn3C)cn2C)cn1C` [Compound 85], the EC50 under setting [1] is below 100 nM.

For the molecule `CCN(CC)CCCC[C@H](NC(=O)[C@H](CC(C)C)NC(=O)[C@H](C)NC(=O)[C@H](Cc1ccccc1)NC(=O)c1ccc(C(C)(C)C)cc1)C(=O)N[C@@H](CO)C(=O)NCCOCCOCCOCCOCCOCCNC(=O)c1nc(NC(=O)CCNC(=O)c2cc(NC(=O)c3nc(NC(=O)CCCNC(=O)c4nc(NC(=O)c5nc(CC(=O)CCNC(=O)c6cc(NC(=O)c7nccn7C)cn6C)cn5C)cn4C)cn3C)cn2C)cn1C` [Compound 104], under setting [1], the 50% effective concentration (EC50) was above 500 nM.

As for `CCN(CC)CCCC[C@H](NC(=O)[C@H](CC(C)C)NC(=O)[C@H](C)NC(=O)[C@H](Cc1ccccc1)NC(=O)c1ccc(C(C)(C)C)cc1)C(=O)N[C@@H](CO)C(=O)N1CCC(N2CCN(CCOCCOCCOCCOCCNC(=O)CCNC(=O)c3nc(NC(=O)c4cc(NC(=O)CCNC(=O)c5nc(NC(=O)CCCNC(=O)c6cc(NC(=O)c7nc(NC(=O)CCNC(=O)c8cc(NC(=O)c9nccn9C)cn8C)cn7C)cn6C)cn5C)cn4C)cn3C)CC2)CC1` [Compound 184], under setting [1], the EC50 is above 500 nM.

As to `CC(C)C[C@H](NC(=O)[C@H](C)NC(=O)[C@H](Cc1ccccc1)NC(=O)c1ccc(C(C)(C)C)cc1)C(=O)N[C@@H](CCCCN(C)C1CC2CCC1C2)C(=O)N[C@@H](CO)C(=O)NCCOCCOCCOCCOCCOCCNC(=O)CCNC(=O)c1nc(NC(=O)c2cc(NC(=O)CCNC(=O)c3nc(NC(=O)CCCNC(=O)c4cc(NC(=O)c5nc(NC(=O)CCNC(=O)c6cc(NC(=O)c7nccn7C)cn6C)cn5C)cn4C)cn3C)cn2C)cn1C` (stereo partly shown) [Compound 59], under setting [1], the EC50 was in the range of 100 to 500 nM.

For the molecule `CCN(CC)CCCC[C@H](NC(=O)[C@H](CC(C)C)NC(=O)[C@H](C)NC(=O)[C@H](Cc1ccccc1)NC(=O)c1ccc(C(C)(C)C)cc1)C(=O)N[C@@H](CO)C(=O)NCCOCCOCCOCCOCCOCCNC(=O)c1nc(NC(=O)CCNC(=O)c2cc(NC(=O)c3nc(NC(=O)CCCNC(=O)c4cc(NC(=O)c5nc(NC(=O)c6cc(NC(=O)c7cccn7C)cn6C)cn5C)cn4C)cn3C)cn2C)cn1C` [Compound 107], the half-maximal effective concentration (EC50) under setting [1] was above 500 nM.

For `CCN(CC)CCCC[C@H](NC(=O)[C@H](CC(C)C)NC(=O)[C@H](C)NC(=O)[C@H](Cc1ccccc1)NC(=O)c1ccc(C(C)(C)C)cc1)C(=O)N[C@@H](CO)C(=O)NCCOCCOCCOCCOCCOCCNC(=O)CCNC(=O)c1cc(NC(=O)c2nc(NC(=O)CCNC(=O)c3nc(NC(=O)CCCNC(=O)c4cc(NC(=O)c5nc(NC(=O)c6cc(NC(=O)CCNC(=O)c7nccn7C)cn6C)cn5C)cn4C)cn3C)cn2C)cn1C` [Compound 285], the EC50 under setting [1] was above 500 nM.

Regarding `CCN(CC)CCCC[C@H](NC(=O)OC(C)(C)C)C(=O)N[C@@H](CO)C(=O)NCCOCCOCCOCCOCCOCCNC(=O)CCNC(=O)c1nc(NC(=O)c2cc(NC(=O)CCNC(=O)c3nc(NC(=O)CCCNC(=O)c4cc(NC(=O)c5nc(NC(=O)CCNC(=O)c6cc(NC(=O)c7nccn7C)cn6C)cn5C)cn4C)cn3C)cn2C)cn1C` [Compound 157], under setting [1], the concentration giving a half-maximal response (EC50) fell in the range of 100 to 500 nM.

Turning to `CCN(c1cc(-c2ccc(CN3CCN(CCOCCOCCOCCOCCOCCNC(=O)CCNC(=O)c4nc(NC(=O)c5cc(NC(=O)CCNC(=O)c6nc(NC(=O)CCCNC(=O)c7cc(NC(=O)c8nc(NC(=O)CCNC(=O)c9cc(NC(=O)c%10nccn%10C)cn9C)cn8C)cn7C)cn6C)cn5C)cn4C)CC3)cc2)cc(C(=O)NCc2c(C)cc(C)[nH]c2=O)c1C)C1CCOCC1` [Compound 166], the EC50 under setting [2] is above 500 nM.

Regarding `Cn1cc(NC(=O)c2nc(NC(=O)CCNC(=O)c3cc(NC(=O)c4nccn4C)cn3C)cn2C)cc1C(=O)NCCCC(=O)Nc1cn(C)c(C(=O)NCCC(=O)Nc2cc(C(=O)Nc3cn(C)c(C(=O)NCCC(=O)NCCOCCOCCOCCOCCOCCOCCn4cc(CC(=O)Nc5ccc(C(=O)Nc6ccccc6N)cc5)nn4)n3)n(C)c2)n1` [Compound 124], under setting [2], the half-maximal effective concentration (EC50) was above 500 nM.

`COc1c(OCCOCCOCCOCCOCCOCCNC(=O)CCNC(=O)c2nc(NC(=O)c3cc(NC(=O)CCNC(=O)c4nc(NC(=O)CCCNC(=O)c5cc(NC(=O)c6nc(NC(=O)CCNC(=O)c7cc(NC(=O)c8nccn8C)cn7C)cn6C)cn5C)cn4C)cn3C)cn2C)cccc1C(=O)N1CCN(C(=O)COc2ccc(NC(N)=O)c(C)c2)CC1` [Compound 95]: the half-maximal effective concentration (EC50) under setting [2] was above 500 nM.

Take `Cc1nc(CCC(=O)NCCOCCOCCOCCOCCOCCOCCOCCOCCOCCOCCOCCOCCOCCOCCOCCNC(=O)CCNC(=O)c2nc(NC(=O)c3cc(NC(=O)CCNC(=O)c4nc(NC(=O)CCCNC(=O)c5cc(NC(=O)c6nc(NC(=O)CCNC(=O)c7cc(NC(=O)c8nccn8C)cn7C)cn6C)cn5C)cn4C)cn3C)cn2C)ccc1-c1cnc(NCc2c(F)ccc3c2CCO3)n2cnnc12` [Compound 63]: under setting [2], the EC50 is above 500 nM.

In the case of `CCN(CC)CCCC[C@H](NC(=O)[C@H](CC(C)C)NC(=O)[C@H](C)NC(=O)[C@H](Cc1ccccc1)NC(=O)c1ccc(C(C)(C)C)cc1)C(=O)N[C@@H](CO)C(=O)NCCOCCOCCOCCOCCOCCNC(=O)c1cc(NC(=O)c2nc(NC(=O)[C@H](N)CCNC(=O)c3cc(NC(=O)c4nc(NC(=O)CCNC(=O)c5cc(NC(=O)c6nccn6C)cn5C)cn4C)cn3C)cn2C)cn1C` [Compound 111], the EC50 under setting [1] was above 500 nM.

As for `CCN(CC)CCCC[C@H](NC(=O)[C@H](CC(C)C)NC(=O)[C@H](C)NC(=O)[C@H](Cc1ccccc1)NC(=O)c1ccccc1)C(=O)N[C@@H](CO)C(=O)NCCOCCOCCOCCOCCOCCNC(=O)c1cc(NC(=O)c2cc(NC(=O)c3nc(NC(=O)c4cc(NC(=O)[C@@H](N)CCNC(=O)c5nc(NC(=O)CCNC(=O)c6cc(NC(=O)c7nccn7C)cn6C)cn5C)cn4C)cn3C)cn2C)cn1C` [Compound 90], the half-maximal effective concentration (EC50) under setting [1] was above 500 nM.

On to `CCN(CC)CCCC[C@H](NC(=O)[C@H](CC(C)C)NC(=O)[C@H](C)NC(=O)[C@H](Cc1ccccc1)NC(=O)c1ccc(C(C)(C)C)cc1)C(=O)N[C@@H](CO)C(=O)NCCOCCOCCOCCOCCOCCNC(=O)c1nc(NC(=O)c2cc(NC(=O)c3cc(NC(=O)c4nc(NC(=O)CCCNC(=O)c5cc(NC(=O)c6nc(NC(=O)CCNC(=O)c7cc(NC(=O)c8nccn8C)cn7C)cn6C)cn5C)cn4C)cn3C)cn2C)cn1C` [Compound 105], for which, under setting [1], the 50% effective concentration (EC50) is above 500 nM.

Regarding `CN(C)[C@@H]1CN(C2CCc3cccc(F)c32)C[C@H]1c1ccc(N2CCN(S(=O)(=O)CCOCCOCCOCCOCCOCCNC(=O)CCNC(=O)c3nc(NC(=O)c4cc(NC(=O)CCNC(=O)c5nc(NC(=O)CCCNC(=O)c6cc(NC(=O)c7nc(NC(=O)CCNC(=O)c8cc(NC(=O)c9nccn9C)cn8C)cn7C)cn6C)cn5C)cn4C)cn3C)CC2)cc1` (stereo partly shown) [Compound 175], the EC50 under setting [2] was 100 to 500 nM.

With `CCN(CC)CCCC[C@H](NC(=O)[C@H](CC(C)C)NC(=O)[C@H](C)NC(=O)[C@H](Cc1ccccc1)NC(=O)c1ccccc1)C(=O)N[C@@H](CO)C(=O)NCCOCCOCCOCCOCCOCCNC(=O)CCNC(=O)c1nc(NC(=O)c2cc(NC(=O)CCNC(=O)c3nc(NC(=O)CCCNC(=O)c4cc(NC(=O)c5nc(NC(=O)CCNC(=O)c6cc(NC(=O)c7nccn7C)cn6C)cn5C)cn4C)cn3C)cn2C)cn1C` [Compound 87], under setting [1], the 50% effective concentration (EC50) is below 100 nM.

In the case of `CCN(CC)CCCC[C@H](NC(=O)[C@H](CC(C)C)NC(=O)[C@H](C)NC(=O)[C@H](Cc1ccccc1)NC(=O)c1ccc(C(C)(C)C)cc1)C(=O)N[C@@H](CO)C(=O)NCCOCCOCCOCCOCCOCCNC(=O)c1cc(NC(=O)c2cc(NC(=O)c3nc(NC(=O)c4cc(NC(=O)[C@@H](N)CCNC(=O)c5nc(NC(=O)CCNC(=O)c6cc(NC(=O)c7nccn7C)cn6C)cn5C)cn4C)cn3C)cn2C)cn1C` [Compound 56], the 50% effective concentration (EC50) under setting [1] is above 500 nM.

As for `CCN(CC)CCCC[C@H](NC(=O)[C@H](CC(C)C)NC(=O)[C@H](C)NC(=O)[C@H](Cc1ccccc1)NC(=O)c1ccc(C(C)(C)C)cc1)C(=O)N[C@@H](CO)C(=O)Nc1ccc(OCCOCCOCCOCCOCCNC(=O)CCNC(=O)c2nc(NC(=O)c3cc(NC(=O)CCNC(=O)c4nc(NC(=O)CCCNC(=O)c5cc(NC(=O)c6nc(NC(=O)CCNC(=O)c7cc(NC(=O)c8nccn8C)cn7C)cn6C)cn5C)cn4C)cn3C)cn2C)cc1` [Compound 177], the EC50 under setting [1] was below 100 nM.
